Test system: SETVI (Setaria viridis, Green foxtail)
Test: post-emergence greenhouse experiment, herbicidal action (synergism by Colby)
Type: in vivo

## CS(=O)(=O)c1cc(C(F)(F)F)ccc1C(=O)c1cnoc1C1CC1 [Isoxaflutole, isoxaflutole]
Growth stage 13 (6 to 10 cm), scale 0 to 100, test period 20 days, isoxaflutole 25 g/ha alone
  Herbicidal action against SETVI, Found: 20
Growth stage 13, scale 0 to 100, 20 days, isoxaflutole 12.5 g/ha alone
  Herbicidal action against SETVI, Found: 20

— patent publication US20210289787A1, “HERBICIDAL MIXTURES COMPRISING ISOXAFLUTOLE, TRIFLUDIMOXAZIN AND AN IMIDAZOLINONE HERBICIDE; AND THEIR USE IN SOYBEAN AND COTTON CULTURES” (BASF SE, priority 2018, published 2021)
